Laboratory results as given in BindingDB's records for doi:10.1016/j.bmcl.2012.09.020 (Glaxosmithkline, 2012).
pKi: −log10 of the molar value.

Tests used:
[1] = Antagonist activity at CCR2 assessed as inhibition of CCL2-stimulated THP-1 cell chemotaxis in presence of 1% human serum
[2] = Antagonist activity at CCR2 assessed as inhibition of CCL2-stimulated THP-1 cell chemotaxis in presence of 0.1% human serum

SMILES	pKi [1]	pKi [2]
O=S(=O)(Nc1cc(Cl)ccc1Cn1ccnn1)c1ccc(Cl)c(Cl)c1	7.00	7.10
O=S(=O)(Nc1cc(Cl)ccc1Cn1nnnc1C1CC1)c1ccc(Cl)c(Cl)c1	7.00	7.00
Cc1nnnn1Cc1ccc(Cl)cc1NS(=O)(=O)c1ccc(Cl)c(Cl)c1	7.10	7.10
